Test results from patent publication US20260183295A1, “METHODS AND COMPOSITIONS FOR TREATING CANCER” (Onconova Therapeutics, Inc., priority 2022, published 2026).

Legend:
Assay in all cases: CETSA-MS, MDA-MB-231 intact cells
Type in all cases: cell-based
Settings in all cases: 2 μM and 20 μM
[1] = target: T1, ANP32B (Homo sapiens, UniProt Q92688)
T1 construct: endogenous in cells; host or cells: MDA-MB-231
Method: (§1) TNBC MDA-MB-231 cells were grown at 37° C. in 5% CO2 and suspended in warm media and split into 4 equal volumes. […] Cells were incubated and then pelleted. Following pelleting, the cells were washed, resuspended, and heated in a thermal gradient. Following heating, the samples were flash frozen and lysed in lysis buffer, agitated by vortex, and sonicated prior to centrifugation. The supernatant was collected and denaturation buffer added. Cold acetone was then added to the cell samples, and protein collected by centrifugation. Pellets were then washed twice with cold acetone and the washed pellets prior to labeling.
(§2) The intact cell protein samples and lysate protein samples were then digested and labeled for mass spectrometry analysis according to the manufacturer's recommended protocols. Digested and labeled protein samples were analyzed by mass spectrometry proteomic analysis and the resulting protein targets were analyzed and plotted.

[2] = target: T2, AVEN (Homo sapiens, UniProt Q9NQS1)
T2 construct: endogenous in cells; host or cells: MDA-MB-231
Method: as §1, §2

[3] = target: T3, CBX5 (Homo sapiens, UniProt P45973)
T3 construct: endogenous in cells; host or cells: MDA-MB-231
Method: as §1, §2

[4] = target: T4, CDC5L (Homo sapiens, UniProt Q99459)
T4 construct: endogenous in cells; host or cells: MDA-MB-231
Method: as §1, §2

[5] = target: T5, CDK7 (Homo sapiens, UniProt P50613)
T5 construct: endogenous in cells; host or cells: MDA-MB-231
Method: as §1, §2

[6] = target: T6, CERS2 (Homo sapiens, UniProt Q96G23)
T6 construct: endogenous in cells; host or cells: MDA-MB-231
Method: as §1, §2

[7] = target: T7, CHEK1 (Homo sapiens, UniProt O14757)
T7 construct: endogenous in cells; host or cells: MDA-MB-231
T7 sequence (O14757 1-476): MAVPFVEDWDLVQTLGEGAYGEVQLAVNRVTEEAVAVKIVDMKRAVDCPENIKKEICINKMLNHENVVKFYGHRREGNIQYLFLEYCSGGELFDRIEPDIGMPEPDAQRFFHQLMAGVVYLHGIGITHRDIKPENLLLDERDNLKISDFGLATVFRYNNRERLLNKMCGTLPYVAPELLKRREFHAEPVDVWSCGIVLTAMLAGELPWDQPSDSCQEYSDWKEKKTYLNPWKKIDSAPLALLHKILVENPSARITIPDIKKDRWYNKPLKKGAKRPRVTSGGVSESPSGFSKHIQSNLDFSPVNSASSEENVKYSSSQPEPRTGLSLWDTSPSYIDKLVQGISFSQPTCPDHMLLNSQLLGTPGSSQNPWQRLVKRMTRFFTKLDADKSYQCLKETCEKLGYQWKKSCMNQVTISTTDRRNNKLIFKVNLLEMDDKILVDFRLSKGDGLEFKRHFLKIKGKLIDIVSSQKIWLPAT
Method: as §1, §2

[8] = target: T8, CLPP (Homo sapiens, UniProt Q16740)
T8 construct: endogenous in cells; host or cells: MDA-MB-231
Method: as §1, §2

[9] = target: T9, DBNDD2 (Homo sapiens, UniProt Q9BQY9)
T9 construct: 148 targets unique to Compound 1 in MDA-MB-231 intact cells; endogenous in cells; host or cells: MDA-MB-231
Method: as §1, §2

[10] = target: T10, ELL (Homo sapiens, UniProt P55199)
T10 construct: 148 targets unique to Compound 1 in MDA-MB-231 intact cells; endogenous in cells; host or cells: MDA-MB-231
Method: as §1, §2

[11] = target: T11, FGFRL1 (Homo sapiens, UniProt Q8N441)
T11 construct: 148 targets unique to Compound 1 in MDA-MB-231 intact cells; endogenous in cells; host or cells: MDA-MB-231
Method: as §1, §2

[12] = target: T12, GAK (Homo sapiens, UniProt O14976)
T12 construct: 148 targets unique to Compound 1 in MDA-MB-231 intact cells; endogenous in cells; host or cells: MDA-MB-231
Method: as §1, §2

[13] = target: T13, GSK3B (Homo sapiens, UniProt P49841)
T13 construct: endogenous in cells; host or cells: MDA-MB-231
Method: as §1, §2

[14] = target: T14, GSKIP (Homo sapiens, UniProt Q9P0R6)
T14 construct: 148 targets unique to Compound 1 in MDA-MB-231 intact cells; endogenous in cells; host or cells: MDA-MB-231
Method: as §1, §2

[15] = target: T15, HSPA13 (Homo sapiens, UniProt P48723)
T15 construct: endogenous in cells; host or cells: MDA-MB-231
Method: as §1, §2

[16] = target: T16, LAMC1 (Homo sapiens, UniProt P11047)
T16 construct: endogenous in cells; host or cells: MDA-MB-231
Method: as §1, §2

[17] = target: T17, LEO1 (Homo sapiens, UniProt Q8WVC0)
T17 construct: endogenous in cells; host or cells: MDA-MB-231
Method: as §1, §2

[18] = target: T18, LRCH4 (Homo sapiens, UniProt O75427)
T18 construct: endogenous in cells; host or cells: MDA-MB-231
Method: as §1, §2

[19] = target: T19, LRRC59 (Homo sapiens, UniProt Q96AG4)
T19 construct: endogenous in cells; host or cells: MDA-MB-231
Method: as §1, §2

[20] = target: T20, MAMDC2 (Homo sapiens, UniProt Q7Z304)
T20 construct: endogenous in cells; host or cells: MDA-MB-231
Method: as §1, §2

[21] = target: T21, MARK2 (Homo sapiens, UniProt Q7KZI7)
T21 construct: endogenous in cells; host or cells: MDA-MB-231
Method: as §1, §2

[22] = target: T22, MPHOSPH8 (Homo sapiens, UniProt Q99549)
T22 construct: endogenous in cells; host or cells: MDA-MB-231
Method: as §1, §2

[23] = target: T23, PUS7L (Homo sapiens, UniProt Q9H0K6)
T23 construct: endogenous in cells; host or cells: MDA-MB-231
Method: as §1, §2

[24] = target: T24, RAE1 (Homo sapiens, UniProt P78406)
T24 construct: endogenous in cells; host or cells: MDA-MB-231
Method: as §1, §2

[25] = target: T25, SIK2 (Homo sapiens, UniProt Q9H0K1)
T25 construct: endogenous in cells; host or cells: MDA-MB-231
Method: as §1, §2

[26] = target: T26, SND1 (Homo sapiens, UniProt Q7KZF4)
T26 construct: endogenous in cells; host or cells: MDA-MB-231
Method: as §1, §2

[27] = target: T27, SNX30 (Homo sapiens, UniProt Q5VWJ9)
T27 construct: endogenous in cells; host or cells: MDA-MB-231
Method: as §1, §2

[28] = target: T28, STX5 (Homo sapiens, UniProt Q13190)
T28 construct: endogenous in cells; host or cells: MDA-MB-231
Method: as §1, §2

[29] = target: T29, SYNCRIP (Homo sapiens, UniProt O60506)
T29 construct: endogenous in cells; host or cells: MDA-MB-231
Method: as §1, §2

[30] = target: T30, TLE5 (Homo sapiens, UniProt Q08117)
T30 construct: endogenous in cells; host or cells: MDA-MB-231
Method: as §1, §2

Measured: Group (CETSA-MS thermal shift)

T14 sequence (Q9P0R6 whole entry): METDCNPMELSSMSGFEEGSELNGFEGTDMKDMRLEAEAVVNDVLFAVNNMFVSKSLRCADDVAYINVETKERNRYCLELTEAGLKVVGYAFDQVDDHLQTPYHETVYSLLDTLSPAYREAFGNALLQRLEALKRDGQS
T22 sequence (Q99549 whole entry): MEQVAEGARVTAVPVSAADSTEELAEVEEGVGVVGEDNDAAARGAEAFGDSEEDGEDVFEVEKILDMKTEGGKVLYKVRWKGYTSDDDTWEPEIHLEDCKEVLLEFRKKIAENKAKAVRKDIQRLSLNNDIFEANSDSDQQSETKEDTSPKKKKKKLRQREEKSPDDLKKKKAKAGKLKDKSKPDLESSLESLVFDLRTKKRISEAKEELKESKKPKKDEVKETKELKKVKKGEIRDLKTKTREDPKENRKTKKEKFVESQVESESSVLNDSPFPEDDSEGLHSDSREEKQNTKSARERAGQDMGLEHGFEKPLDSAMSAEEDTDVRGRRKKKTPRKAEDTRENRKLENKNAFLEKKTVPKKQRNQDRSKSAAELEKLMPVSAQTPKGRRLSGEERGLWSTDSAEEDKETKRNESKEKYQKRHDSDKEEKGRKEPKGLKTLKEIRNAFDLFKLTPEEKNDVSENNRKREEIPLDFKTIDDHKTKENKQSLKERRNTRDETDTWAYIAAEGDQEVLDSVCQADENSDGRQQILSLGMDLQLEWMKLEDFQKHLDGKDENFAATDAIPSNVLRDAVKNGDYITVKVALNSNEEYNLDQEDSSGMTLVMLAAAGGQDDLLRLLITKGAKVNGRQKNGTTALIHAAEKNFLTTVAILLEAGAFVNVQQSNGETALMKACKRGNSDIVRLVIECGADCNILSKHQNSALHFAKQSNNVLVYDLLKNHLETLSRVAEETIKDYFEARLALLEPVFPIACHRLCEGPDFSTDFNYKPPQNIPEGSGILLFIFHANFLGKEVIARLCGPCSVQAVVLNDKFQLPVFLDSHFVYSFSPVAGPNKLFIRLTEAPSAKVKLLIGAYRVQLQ
T19 sequence (Q96AG4 whole entry): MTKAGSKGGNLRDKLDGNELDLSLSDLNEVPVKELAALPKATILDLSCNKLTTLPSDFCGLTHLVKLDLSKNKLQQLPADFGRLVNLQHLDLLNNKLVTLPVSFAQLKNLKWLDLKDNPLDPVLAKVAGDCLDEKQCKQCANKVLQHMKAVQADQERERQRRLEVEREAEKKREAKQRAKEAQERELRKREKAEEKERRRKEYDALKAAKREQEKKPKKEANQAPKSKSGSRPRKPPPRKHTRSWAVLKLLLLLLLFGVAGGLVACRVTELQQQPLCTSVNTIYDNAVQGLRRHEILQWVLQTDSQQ
T25 sequence (Q9H0K1 whole entry): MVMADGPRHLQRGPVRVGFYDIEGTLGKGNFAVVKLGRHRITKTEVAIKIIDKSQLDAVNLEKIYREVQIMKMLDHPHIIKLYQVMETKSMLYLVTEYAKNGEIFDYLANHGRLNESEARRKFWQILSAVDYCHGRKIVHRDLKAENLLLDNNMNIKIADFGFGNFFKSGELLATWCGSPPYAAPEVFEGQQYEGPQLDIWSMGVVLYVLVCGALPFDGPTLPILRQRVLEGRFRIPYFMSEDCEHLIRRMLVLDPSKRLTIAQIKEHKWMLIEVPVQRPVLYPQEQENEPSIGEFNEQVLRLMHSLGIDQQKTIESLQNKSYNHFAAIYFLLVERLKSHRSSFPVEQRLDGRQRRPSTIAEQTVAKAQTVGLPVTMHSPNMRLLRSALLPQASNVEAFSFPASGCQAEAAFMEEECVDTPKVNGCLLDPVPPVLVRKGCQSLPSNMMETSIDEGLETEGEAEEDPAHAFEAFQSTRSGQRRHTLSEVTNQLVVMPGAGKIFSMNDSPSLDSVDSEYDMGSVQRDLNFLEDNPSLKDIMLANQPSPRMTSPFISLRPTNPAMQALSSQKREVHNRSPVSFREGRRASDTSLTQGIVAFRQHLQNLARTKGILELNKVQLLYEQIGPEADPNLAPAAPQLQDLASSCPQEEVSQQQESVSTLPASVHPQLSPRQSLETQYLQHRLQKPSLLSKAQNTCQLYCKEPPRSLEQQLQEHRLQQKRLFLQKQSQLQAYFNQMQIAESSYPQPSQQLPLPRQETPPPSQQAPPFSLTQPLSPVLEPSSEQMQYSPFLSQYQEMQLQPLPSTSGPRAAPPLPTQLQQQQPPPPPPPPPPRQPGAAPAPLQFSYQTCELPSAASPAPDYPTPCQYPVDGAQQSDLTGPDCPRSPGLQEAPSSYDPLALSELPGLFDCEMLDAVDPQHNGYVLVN
T10 sequence (P55199 whole entry): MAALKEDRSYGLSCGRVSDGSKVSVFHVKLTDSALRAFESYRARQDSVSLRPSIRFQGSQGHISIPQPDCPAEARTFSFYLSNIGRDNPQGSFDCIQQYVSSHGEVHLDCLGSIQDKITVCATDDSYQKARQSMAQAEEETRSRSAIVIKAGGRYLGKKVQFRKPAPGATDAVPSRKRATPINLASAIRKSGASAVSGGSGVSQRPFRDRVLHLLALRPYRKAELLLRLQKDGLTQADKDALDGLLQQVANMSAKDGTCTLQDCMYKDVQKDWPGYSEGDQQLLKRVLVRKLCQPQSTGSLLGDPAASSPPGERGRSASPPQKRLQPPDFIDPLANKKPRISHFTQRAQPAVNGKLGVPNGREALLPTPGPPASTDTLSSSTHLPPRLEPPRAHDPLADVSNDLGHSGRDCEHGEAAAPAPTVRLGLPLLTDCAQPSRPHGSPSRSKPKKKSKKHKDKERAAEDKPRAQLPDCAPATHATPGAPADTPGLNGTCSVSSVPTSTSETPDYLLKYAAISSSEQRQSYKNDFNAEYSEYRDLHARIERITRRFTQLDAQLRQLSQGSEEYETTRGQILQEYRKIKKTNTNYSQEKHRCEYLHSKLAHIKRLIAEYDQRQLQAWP
T11 sequence (Q8N441 25-504): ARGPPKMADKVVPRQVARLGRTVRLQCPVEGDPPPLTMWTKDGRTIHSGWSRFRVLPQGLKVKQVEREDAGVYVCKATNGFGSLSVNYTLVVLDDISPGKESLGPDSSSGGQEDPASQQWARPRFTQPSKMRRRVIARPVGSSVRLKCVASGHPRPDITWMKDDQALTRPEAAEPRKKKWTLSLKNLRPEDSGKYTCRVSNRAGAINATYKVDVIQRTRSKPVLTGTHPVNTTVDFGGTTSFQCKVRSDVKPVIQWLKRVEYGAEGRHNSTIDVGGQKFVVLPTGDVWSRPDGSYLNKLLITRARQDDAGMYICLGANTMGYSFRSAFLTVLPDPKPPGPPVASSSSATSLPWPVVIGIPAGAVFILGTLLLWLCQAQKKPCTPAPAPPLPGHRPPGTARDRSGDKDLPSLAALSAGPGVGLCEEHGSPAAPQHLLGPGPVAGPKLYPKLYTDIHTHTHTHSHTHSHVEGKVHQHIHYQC
T9 sequence (Q9BQY9 whole entry): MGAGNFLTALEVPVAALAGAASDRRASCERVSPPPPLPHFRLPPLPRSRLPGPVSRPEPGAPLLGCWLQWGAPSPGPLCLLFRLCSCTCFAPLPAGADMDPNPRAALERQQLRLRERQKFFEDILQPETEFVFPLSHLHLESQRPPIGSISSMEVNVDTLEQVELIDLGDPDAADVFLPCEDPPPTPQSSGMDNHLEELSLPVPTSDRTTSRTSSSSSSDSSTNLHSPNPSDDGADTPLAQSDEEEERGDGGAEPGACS
T29 sequence (O60506 whole entry): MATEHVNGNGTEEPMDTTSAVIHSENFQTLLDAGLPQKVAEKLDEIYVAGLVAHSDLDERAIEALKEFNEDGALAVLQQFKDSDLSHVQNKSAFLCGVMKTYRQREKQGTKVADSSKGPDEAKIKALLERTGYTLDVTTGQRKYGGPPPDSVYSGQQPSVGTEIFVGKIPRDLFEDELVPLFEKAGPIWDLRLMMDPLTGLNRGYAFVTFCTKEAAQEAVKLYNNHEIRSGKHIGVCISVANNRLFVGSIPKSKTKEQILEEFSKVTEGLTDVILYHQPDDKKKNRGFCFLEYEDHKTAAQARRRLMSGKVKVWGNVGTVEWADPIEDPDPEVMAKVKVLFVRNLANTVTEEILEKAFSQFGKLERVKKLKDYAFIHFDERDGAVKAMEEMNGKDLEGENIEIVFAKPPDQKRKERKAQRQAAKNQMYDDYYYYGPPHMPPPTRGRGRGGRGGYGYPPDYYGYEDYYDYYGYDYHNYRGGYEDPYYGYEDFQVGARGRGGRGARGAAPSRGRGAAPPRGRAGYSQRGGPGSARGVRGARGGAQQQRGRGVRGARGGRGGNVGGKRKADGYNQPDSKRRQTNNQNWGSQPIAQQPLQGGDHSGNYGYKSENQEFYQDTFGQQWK
T15 sequence (P48723 23-471): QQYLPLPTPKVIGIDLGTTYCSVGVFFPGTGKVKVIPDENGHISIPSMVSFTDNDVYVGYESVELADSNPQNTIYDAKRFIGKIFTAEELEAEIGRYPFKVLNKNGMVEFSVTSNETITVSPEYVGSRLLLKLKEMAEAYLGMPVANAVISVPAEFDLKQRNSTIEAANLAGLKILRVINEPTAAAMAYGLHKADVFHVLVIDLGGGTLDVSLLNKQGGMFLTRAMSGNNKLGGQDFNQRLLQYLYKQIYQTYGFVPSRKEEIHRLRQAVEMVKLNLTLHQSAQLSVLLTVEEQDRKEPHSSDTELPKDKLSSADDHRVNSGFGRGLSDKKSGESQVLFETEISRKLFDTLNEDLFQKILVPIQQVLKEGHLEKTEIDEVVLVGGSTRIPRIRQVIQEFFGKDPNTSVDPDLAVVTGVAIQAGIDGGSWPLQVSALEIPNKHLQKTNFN
T30 sequence (Q08117 whole entry): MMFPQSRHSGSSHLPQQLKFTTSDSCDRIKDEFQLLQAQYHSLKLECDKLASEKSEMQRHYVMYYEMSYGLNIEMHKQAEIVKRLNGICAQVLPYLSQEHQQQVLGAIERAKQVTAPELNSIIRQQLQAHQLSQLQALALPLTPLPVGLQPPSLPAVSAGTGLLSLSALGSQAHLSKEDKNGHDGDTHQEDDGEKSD

CN1CCN(c2ccc(Nc3ncc4cc(C#N)c(=O)n(C5CCCC5)c4n3)cc2)CC1 [Compound 1, 8-cyclopentyl-2-((4-(4-methylpiperazin-1-yl)phenyl)amino)-7-oxo-7,8-dihydropyrido[2,3-d]pyrimidine-6-carbonitrile]
Destabilization: [1] | [2] | [5] | [7] | [21] | [23] | [27] | [30]
Stabilization: all other assays above
